According to patent publication EP0295827A2, “Use of 24,25-dihydroxy-cholecalciferol in mending bone fractures” (priority 1987, dated 1988):

How the values were obtained:
ICR mice [1] = assay: 30-day repeated oral administration: weight of organs; format: in vivo; design: key: ↓: Decreased; →: No change; ↑: Increased; details: male, 30 days, vs control group
Procedure: (§1) 24R,25-(OH)₂-D₃ was dissolved in 1% ethanol containing Panacate 810 to a predetermined concentration and the resultant solution was forcibly and orally administered to 5-week-old male or female ICR mice for 30 days in succession so that the does might become to 10 µg/kg/day, 100 µg/kg/day and 1,000 µg/kg/day, respectively. The thus treated mice were compared with a group of mice to which only the solvent had been administered in the following test items.

[2] = 30-day repeated oral administration: growth curve of measured weights; format: in vivo, ICR mice; details: 10, 100 and 1,000 µg/kg/day oral, 30 days, male or female, vs solvent group
Procedure: as §1

ICR mice [3] = assay: 30-day repeated oral administration: biochemical serum test; format: in vivo; design: key: ↓: Decreased; →: No change; ↑: Increased; details: 30 days, vs control group
Procedure: as §1

ICR mice [4] = assay: 30-day repeated oral administration: pathological inspection of organs; format: in vivo; details: 10, 100 and 1,000 µg/kg/day oral, 30 days; 10% formalin, hematoxylin-eosin
Procedure: as §1
The following organs were fixed by 10% formalin, stained with hematoxylin-eosin and subjected to pathological inspection.

[5] = system: rabbits suffering fracture; assay: Fibula fracture model: strength test (bending test); format: in vivo, Japanese white house rabbits; details: 100 µg/kg oral, average value ± standard deviation
Text: The right fibulae of mature house rabbits (Japanese white house rabbits having a weight of about 3 kg) were broken at the central portions under anesthetic with a dental hand drill. Each of the house rabbits was kept in a separate cage and was allowed to take an ordinary solid food (CR-1, produced by Nippon Clare Corp.) and city water freely. 24R,25-(OH)₂-D₃ and 24S,25-(OH)₂-D₃ were dispersed in an aqueous 0.5% CMC solution and orally administered to the house rabbits through a rubber catheter. The experimental groups were as follows:
The respective medicines or aqueous 0.5% CMC solution was administered to these house rabbits for 3 weeks or 6 weeks after the bones had been broken. Thereafter, the house rabbits were killed and the fibulae were taken out for X-ray inspection and a strength test (bending test by DDV-VMF produced by Toyo Baldwin Co., Ltd.).

C=C1CC[C@H](O)C/C1=C/C=C1\CCC[C@]2(C)[C@@H]([C@H](C)CC[C@@H](O)C(C)(C)O)CC[C@@H]12 [24R,25-(OH)₂-D₃]
Weight of organs: Thymus (ICR mice [1]; 10 μg/kg·day oral): →
Weight of organs: Adrenal gland (ICR mice [1]; 100 μg/kg·day oral): →
Weight of organs: Brain (ICR mice [1]; 100 μg/kg·day oral): →
Weight of organs: Heart (ICR mice [1]; 100 μg/kg·day oral): →
Weight of organs: Hypo-physis (ICR mice [1]; 100 μg/kg·day oral): →
Weight of organs: Kidney (ICR mice [1]; 100 μg/kg·day oral): →
Weight of organs: Liver (ICR mice [1]; 100 μg/kg·day oral): →
Weight of organs: Lung (ICR mice [1]; 100 μg/kg·day oral): →
Weight of organs: Spleen (ICR mice [1]; 100 μg/kg·day oral): →
Weight of organs: Testis (ICR mice [1]; 100 μg/kg·day oral): →
Weight of organs: Thymus (ICR mice [1]; 100 μg/kg·day oral): →
Weight of organs: Adrenal gland (ICR mice [1]; 1000 μg/kg·day oral): →
Weight of organs: Brain (ICR mice [1]; 1000 μg/kg·day oral): →
Weight of organs: Heart (ICR mice [1]; 1000 μg/kg·day oral): →
Weight of organs: Hypo-physis (ICR mice [1]; 1000 μg/kg·day oral): →
Weight of organs: Kidney (ICR mice [1]; 1000 μg/kg·day oral): →
Weight of organs: Liver (ICR mice [1]; 1000 μg/kg·day oral): →
Weight of organs: Lung (ICR mice [1]; 1000 μg/kg·day oral): →
Weight of organs: Spleen (ICR mice [1]; 1000 μg/kg·day oral): →
Weight of organs: Testis (ICR mice [1]; 1000 μg/kg·day oral): →
Weight of organs: Thymus (ICR mice [1]; 1000 μg/kg·day oral): →
growth curve of the measured weights [2]: no significant difference
A/G (ICR mice [3]; female, 10 µg/kg·day oral): →
ALP (ICR mice [3]; female, 10 µg/kg·day oral): →
Aℓb (ICR mice [3]; female, 10 µg/kg·day oral): →
BUN (ICR mice [3]; female, 10 µg/kg·day oral): →
Ca (ICR mice [3]; female, 10 µg/kg·day oral): →
GOT (ICR mice [3]; female, 10 µg/kg·day oral): →
GPT (ICR mice [3]; female, 10 µg/kg·day oral): →
Gℓu (ICR mice [3]; female, 10 µg/kg·day oral): →
I-P (ICR mice [3]; female, 10 µg/kg·day oral): →
LDH (ICR mice [3]; female, 10 µg/kg·day oral): →
T-Biℓ (ICR mice [3]; female, 10 µg/kg·day oral): →
T-CHO (ICR mice [3]; female, 10 µg/kg·day oral): →
T-P (ICR mice [3]; female, 10 µg/kg·day oral): →
A/G (ICR mice [3]; female, 100 µg/kg·day oral): →
ALP (ICR mice [3]; female, 100 µg/kg·day oral): →
Aℓb (ICR mice [3]; female, 100 µg/kg·day oral): →
BUN (ICR mice [3]; female, 100 µg/kg·day oral): →
Ca (ICR mice [3]; female, 100 µg/kg·day oral): →
GOT (ICR mice [3]; female, 100 µg/kg·day oral): →
GPT (ICR mice [3]; female, 100 µg/kg·day oral): →
Gℓu (ICR mice [3]; female, 100 µg/kg·day oral): →
I-P (ICR mice [3]; female, 100 µg/kg·day oral): →
LDH (ICR mice [3]; female, 100 µg/kg·day oral): →
T-Biℓ (ICR mice [3]; female, 100 µg/kg·day oral): →
T-CHO (ICR mice [3]; female, 100 µg/kg·day oral): →
T-P (ICR mice [3]; female, 100 µg/kg·day oral): →
A/G (ICR mice [3]; female, 1000 µg/kg·day oral): →
ALP (ICR mice [3]; female, 1000 µg/kg·day oral): →
Aℓb (ICR mice [3]; female, 1000 µg/kg·day oral): →
BUN (ICR mice [3]; female, 1000 µg/kg·day oral): →
Ca (ICR mice [3]; female, 1000 µg/kg·day oral): →
GOT (ICR mice [3]; female, 1000 µg/kg·day oral): →
GPT (ICR mice [3]; female, 1000 µg/kg·day oral): →
Gℓu (ICR mice [3]; female, 1000 µg/kg·day oral): →
I-P (ICR mice [3]; female, 1000 µg/kg·day oral): →
LDH (ICR mice [3]; female, 1000 µg/kg·day oral): →
T-Biℓ (ICR mice [3]; female, 1000 µg/kg·day oral): →
T-CHO (ICR mice [3]; female, 1000 µg/kg·day oral): →
T-P (ICR mice [3]; female, 1000 µg/kg·day oral): →
A/G (ICR mice [3]; male, 10 µg/kg·day oral): →
ALP (ICR mice [3]; male, 10 µg/kg·day oral): →
Aℓb (ICR mice [3]; male, 10 µg/kg·day oral): →
BUN (ICR mice [3]; male, 10 µg/kg·day oral): →
Ca (ICR mice [3]; male, 10 µg/kg·day oral): →
GOT (ICR mice [3]; male, 10 µg/kg·day oral): →
GPT (ICR mice [3]; male, 10 µg/kg·day oral): →
Gℓu (ICR mice [3]; male, 10 µg/kg·day oral): →
I-P (ICR mice [3]; male, 10 µg/kg·day oral): →
LDH (ICR mice [3]; male, 10 µg/kg·day oral): →
T-Biℓ (ICR mice [3]; male, 10 µg/kg·day oral): →
T-CHO (ICR mice [3]; male, 10 µg/kg·day oral): →
T-P (ICR mice [3]; male, 10 µg/kg·day oral): →
A/G (ICR mice [3]; male, 100 µg/kg·day oral): →
ALP (ICR mice [3]; male, 100 µg/kg·day oral): →
Aℓb (ICR mice [3]; male, 100 µg/kg·day oral): →
BUN (ICR mice [3]; male, 100 µg/kg·day oral): →
Ca (ICR mice [3]; male, 100 µg/kg·day oral): →
GOT (ICR mice [3]; male, 100 µg/kg·day oral): →
GPT (ICR mice [3]; male, 100 µg/kg·day oral): →
Gℓu (ICR mice [3]; male, 100 µg/kg·day oral): →
I-P (ICR mice [3]; male, 100 µg/kg·day oral): →
LDH (ICR mice [3]; male, 100 µg/kg·day oral): →
T-Biℓ (ICR mice [3]; male, 100 µg/kg·day oral): →
T-CHO (ICR mice [3]; male, 100 µg/kg·day oral): →
T-P (ICR mice [3]; male, 100 µg/kg·day oral): →
A/G (ICR mice [3]; male, 1000 µg/kg·day oral): →
ALP (ICR mice [3]; male, 1000 µg/kg·day oral): →
Aℓb (ICR mice [3]; male, 1000 µg/kg·day oral): →
BUN (ICR mice [3]; male, 1000 µg/kg·day oral): ↓
Ca (ICR mice [3]; male, 1000 µg/kg·day oral): →
GOT (ICR mice [3]; male, 1000 µg/kg·day oral): →
GPT (ICR mice [3]; male, 1000 µg/kg·day oral): →
Gℓu (ICR mice [3]; male, 1000 µg/kg·day oral): ↓
I-P (ICR mice [3]; male, 1000 µg/kg·day oral): →
LDH (ICR mice [3]; male, 1000 µg/kg·day oral): ↓
T-Biℓ (ICR mice [3]; male, 1000 µg/kg·day oral): ↓
T-CHO (ICR mice [3]; male, 1000 µg/kg·day oral): →
T-P (ICR mice [3]; male, 1000 µg/kg·day oral): →
pathological inspection of organs (ICR mice [4]): No particular abnormality was observed
Bending strength ([5]; 3 weeks after): 63 ± 33 N/mm
Bending strength ([5]; 6 weeks after): 103 ± 15 N/mm
